pKd, pKi: −log10 of the molar value. Where a name gives a salt, the structure may show the parent alone.
Columns and labels:
[1] = test system: guinea pig stomach muscle strip; conditions: cited from earlier work
gastric emptying [2] = conditions: cited from earlier work
5-HT3 receptors = molecular target: T1, 5-HT3 receptors (Mus musculus, UniProt P23979); assay: Serotonin 5-HT3 receptor binding assay, [3H]GR65630, NG108-15 membranes; conditions: for pKi: Ki (5-HT3 receptors), [3H]GR65630 1 nM, apparent Ki calculated from IC50
T1 construct: endogenous in cells; host or cells: NG108-15 neuroblastoma cells (membranes)
T1 sequence (P23979 24-489): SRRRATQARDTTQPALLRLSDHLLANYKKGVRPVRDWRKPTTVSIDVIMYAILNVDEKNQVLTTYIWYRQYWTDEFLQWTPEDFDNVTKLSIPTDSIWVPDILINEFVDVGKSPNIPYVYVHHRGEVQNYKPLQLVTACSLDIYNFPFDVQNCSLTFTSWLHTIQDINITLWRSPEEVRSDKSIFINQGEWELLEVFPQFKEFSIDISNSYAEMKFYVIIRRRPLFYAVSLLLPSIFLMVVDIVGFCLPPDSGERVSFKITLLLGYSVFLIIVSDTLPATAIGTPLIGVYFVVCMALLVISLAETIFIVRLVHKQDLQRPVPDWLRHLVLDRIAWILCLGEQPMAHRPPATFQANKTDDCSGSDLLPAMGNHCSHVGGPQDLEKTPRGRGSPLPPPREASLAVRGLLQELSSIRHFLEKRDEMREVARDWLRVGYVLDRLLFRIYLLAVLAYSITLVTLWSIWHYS
Description: Preparation of Membrane Suspensions
NG108-15 neuroblastoma cells were cultured at 37° C. in closed culture flasks for 3-4 days or to confluence (6-16×10^6 cells/flask). […] The cells were centrifuged at 900×g for five minutes at 4° C. At this point the cells could be frozen. The (frozen or freshly prepared) pellets from each flask were suspended in 4 ml buffer and homogenized a second time as above. The resulting supernatant was used for radioligand binding studies.
To each well of a microtiter plate were added 100 μl tissue, 50 μl [^3 H]GR65630 (4 nM stock, SA=64 Ci/mmol from Dupont/NEN) and 50 μl drugs. Nonspecific binding was measured in the presence of 10 μM zacopride. Reactions were incubated for 45-60 minutes at 25° C. followed by filtration under reduced pressure through GF/B-type filters with the aid of either a Brandel or Skatron macro harvester. The filters were washed with ice-cold buffer (a 6 sec wash time on the Skatron harvester, using filters presoaked with polyethylenimine) and specific binding was measured by either a Packard CA 1900 or an LKB Betaplate counter. […] IC50 values were determined for test drugs, and Ki values calculated from the equation: […]

[3] = test system: gastric emptying of solid meals; assay: Canine gastric emptying in vivo model, alpha-2 adrenergic model of gastroparesis, solid meal; set-up: species or system dog; conditions: % emptied, treated, emptying delayed by alpha-2 adrenergic agonist
[4] = test system: 5-HT3-mediated Bezold Jarisch reflex; conditions: in vivo; cited from earlier work
[5] = test system: guinea pig stomach strips; conditions: cited from earlier work
antroduodenal motility = conditions: coadministered with cisapride; dogs; cited from earlier work
gastric emptying [6] = conditions: in vivo; cited from earlier work
[7] = test system: transit of a charcoal meal; conditions: mouse, in vivo; cited from earlier work
5-HT4 receptor subtype = conditions: mouse embryonic colliculi neurons; cited from earlier work
GI transit [8] = conditions: man; cited from earlier work
GI transit [9] = conditions: man; cited from earlier work; remark: listed apart in the source
[10] = test system: peristalsis in the GI tract; conditions: various animal models; cited from earlier work
5-HT4 receptors = conditions: cited from earlier work

Which results are given for `CN1[C@@H]2CC[C@H]1C[C@@H](OC(=O)c1cc(Cl)cc(Cl)c1)C2` [MDL 72222]?
guinea pig stomach muscle strip contraction in vitro [1]: enhanced guinea pig stomach muscle strip contraction in vitro; gastric emptying rates in vivo (gastric emptying [2]): increases in gastric emptying rates in vivo

Which results are given for `COc1cc(N)c(Cl)cc1C(=O)NCC1C2CC3CC1CN(C3)C2` (stereo not drawn) [Example 4, Exo-4-amino-N-(1-azacyclo[3.3.1.1^3,7]decan-4-ylmethyl)-5-chloro-2-methoxybenzamide, hydrochloride]?
pKi (5-HT3 receptors; NG108-15 membranes, 25° C.): 7.59; Canine Solid Gastric Emptying (% Control to Treat) ([3]; control 20.2%, at 0.3 mg/kg IV): 35.1%

Which “5-HT3-mediated Bezold Jarisch reflex” value [4] does the source give for `CCN(CC)CCNC(=O)c1cc(Cl)c(N)cc1OC` [metoclopramide] here?
Its value is “blocks the 5-HT3 -mediated Bezold Jarisch reflex”.

What about the “electrical-field stimulated contractions in guinea pig stomach strips” value [5] of the same compound?
The value was “enhanced electrical-field stimulated contractions”.

And the “guinea pig stomach muscle strip contraction in vitro” value [1]?
Its value is “enhanced guinea pig stomach muscle strip contraction in vitro”.

What about the “gastric emptying rates in vivo” value (gastric emptying [2]) of the same compound?
Its value is “increases in gastric emptying rates in vivo”.

For `CN1[C@@H]2CC[C@H]1C[C@@H](OC(=O)c1c[nH]c3ccccc13)C2` [ICS-205930], which “effect on the responses to cisapride” value (antroduodenal motility) is on record?
Its value is “did not affect the responses to cisapride”.

What about the “guinea pig stomach muscle strip contraction in vitro” value [1] of the same compound?
Its value is “enhanced guinea pig stomach muscle strip contraction in vitro”.

And the gastric emptying (gastric emptying [6])?
The gastric emptying was “enhanced gastric emptying”.

What about the “gastric emptying rates in vivo” value (gastric emptying [2]) of the same compound?
Its value is “increases in gastric emptying rates in vivo”.

With `Cc1nccn1CC1CCc2c(c3ccccc3n2C)C1=O.Cl.O.O` (stereo not shown) [SN-307] as the compound, how does the “transit of a charcoal meal in mice” value [7] read?
Its value is “enhanced transit of a charcoal meal in mice”.

With `COc1cc(N)c(Cl)cc1C(=O)NC1CCN(CCCOc2ccc(F)cc2)CC1OC` (stereo not shown) [Cisapride] as the compound, how does the “correlation of prokinetic activity with 5-HT4 agonist activity” value (5-HT4 receptor subtype) read?
The value was “correlate with agonist activity at a novel 5-HT4 receptor subtype”.

What about the “Canine Solid Gastric Emptying (% Control to Treat)” value ([3]; control 23.2%, at 0.3 mg/kg IG) of the same compound?
Its value is 36.6%.

With `COc1cc(N)c(Cl)cc1C(=O)NCC1C2CC3CC1CN(C3)C2` (stereo not drawn) [Example 2, Endo-4-amino-N-(1-azacyclo[3.3.1.1^3,7]decan-4-ylmethyl)-5-chloro-2-methoxybenzamide hydrochloride] as the compound, how does the pKi (5-HT3 receptors; NG108-15 membranes, 25° C.) read?
The pKi was 6.84.

With `Cc1nccn1CC1CCc2c(c3ccccc3n2C)C1=O` (stereo not shown) [GR38032] as the compound, how does the GI transit (GI transit [8]) read?
Its GI transit is “failed to accelerate GI transit”.

And the colonic transit (GI transit [8])?
The colonic transit was “slowed colonic transit in man”.

What about the “small intestinal transit times or mouth-to-cecum transit times” value (GI transit [9]) of the same compound?
The value was “did not alter small intestinal transit times or mouth-to-cecumtransit times”.

For `NCCc1c[nH]c2ccc(O)cc12` [Serotonin, 5-hydroxytryptamine], which “peristalsis in the GI tract” value [10] is on record?
Its value is “promote peristalsis in the GI tract”.

What about the “receptor mediating the peristaltic reflex” value (5-HT4 receptors) of the same compound?
Its value is “mediated through agonism at 5-HT4 receptors”.

Which “correlation of prokinetic activity with 5-HT4 agonist activity” value (5-HT4 receptor subtype) does the source give for `COc1cc(N)c(Cl)cc1C(=O)NC1CCN2CCCC1C2` (stereo not shown) [BRL-24924] here?
Its value is “correlate with agonist activity at a novel 5-HT4 receptor subtype”.

And the “receptor mediating the peristaltic reflex” value (5-HT4 receptors)?
Its value is “mediated through agonism at 5-HT4 receptors”.

With `Cc1nc[nH]c1CCC(=O)c1cn(C)c2ccccc12` [[^3 H]GR65630] as the compound, how does the pKd (5-HT3 receptors) read?
The pKd was 8.82.

And the Bmax (5-HT3 receptors; radioligand, NG108-15 membranes, 25° C.)?
The Bmax was 195 fmole/mg protein.
